Measured values published in the NIST ThermoML archive (doi:10.1016/j.jct.2010.01.009).
“And” between values parts separate entries of the source, which are not always exact repeats. Identical values can stand only once. Numbers after ± are expanded uncertainties.

Details: Crystal, Calculated from knudsen effusion weight loss

Structure (SMILES) | vapor or sublimation pressure (283.11 K) | vapor or sublimation pressure (285.13 K) | vapor or sublimation pressure (287.12 K) | vapor or sublimation pressure (289.13 K) | vapor or sublimation pressure (291.14 K) | vapor or sublimation pressure (293.13 K) | vapor or sublimation pressure (295.18 K) | vapor or sublimation pressure (297.15 K) | vapor or sublimation pressure (299.16 K) | vapor or sublimation pressure (271.14 K) | vapor or sublimation pressure (273.15 K) | vapor or sublimation pressure (275.17 K) | vapor or sublimation pressure (277.06 K) | vapor or sublimation pressure (279.15 K) | vapor or sublimation pressure (281.11 K) | vapor or sublimation pressure (283.19 K) | vapor or sublimation pressure (285.24 K) | vapor or sublimation pressure (287.13 K)
Cc1ccc(-n2cccc2)cc1 [1-(4-methylphenyl)-1H-pyrrole] | 0.00014 ± 7e-06 kPa and 0.000137 ± 7e-06 kPa | 0.000168 ± 8e-06 kPa and 0.000169 ± 8e-06 kPa and 0.000174 ± 9e-06 kPa | 0.00023 ± 1.2e-05 kPa and 0.000224 ± 1.1e-05 kPa and 0.00022 ± 1.1e-05 kPa | 0.000278 ± 1.4e-05 kPa and 0.000282 ± 1.4e-05 kPa and 0.000286 ± 1.4e-05 kPa | 0.000362 ± 1.8e-05 kPa and 0.000355 ± 1.8e-05 kPa | 0.000468 ± 2.3e-05 kPa and 0.000459 ± 2.3e-05 kPa and 0.000451 ± 2.3e-05 kPa | 0.000579 ± 2.9e-05 kPa and 0.000571 ± 2.9e-05 kPa and 0.000558 ± 2.8e-05 kPa | 0.000732 ± 3.7e-05 kPa and 0.000734 ± 3.7e-05 kPa | 0.000948 ± 4.7e-05 kPa and 0.000927 ± 4.6e-05 kPa and 0.000925 ± 4.6e-05 kPa |  |  |  |  |  |  |  |  | 
c1ccc(-n2cccc2)cc1 [1-phenylpyrrole] |  |  |  |  |  |  |  |  |  | 0.000151 ± 8e-06 kPa and 0.000147 ± 7e-06 kPa and 0.000143 ± 7e-06 kPa | 0.000191 ± 1e-05 kPa and 0.00019 ± 1e-05 kPa and 0.000185 ± 9e-06 kPa | 0.000255 ± 1.3e-05 kPa and 0.000247 ± 1.2e-05 kPa and 0.000241 ± 1.2e-05 kPa | 0.000336 ± 1.7e-05 kPa and 0.000311 ± 1.6e-05 kPa and 0.00033 ± 1.7e-05 kPa | 0.000426 ± 2.1e-05 kPa and 0.000414 ± 2.1e-05 kPa and 0.000397 ± 2e-05 kPa | 0.000537 ± 2.7e-05 kPa and 0.000525 ± 2.6e-05 kPa | 0.000682 ± 3.4e-05 kPa and 0.000678 ± 3.4e-05 kPa and 0.000651 ± 3.3e-05 kPa | 0.000905 ± 4.5e-05 kPa and 0.000887 ± 4.4e-05 kPa | 0.001123 ± 0.00012 kPa and 0.001111 ± 0.00011 kPa and 0.00106 ± 0.00011 kPa
